Patent US10512669B2, “Blockade of inflammatory proteases with cyclic peptides” (The Regents of the University of California, priority 2011, dated 2019)
Bridge positions count the residues as written; N and C are the ends. Peptide text beside a SMILES is read from it.

Legend:
[1] = molecular target: TACE expressed on THP-1 cells (Homo sapiens, UniProt P78536); settings: read-out: IC50 TACE blockade on THP-1 cells; literature study (ref. 1); cited from earlier work
[2] = 50 μg/ml in 50 mg/ml human serum albumin, 72 hours, room temperature
in vitro = settings: human, plasma
chimpanzees = assay: escalating i.v. doses in adult chimpanzees: toxicity and immunogenicity; settings: two adult chimpanzees
[3] = molecular target: recombinant TACE (rTACE, ADAM17) (Homo sapiens, UniProt P78536); assay: recombinant TACE fluorometric inhibition assay; format: biochemical
recombinant TACE (rTACE, ADAM17), sequence (P78536 215-824): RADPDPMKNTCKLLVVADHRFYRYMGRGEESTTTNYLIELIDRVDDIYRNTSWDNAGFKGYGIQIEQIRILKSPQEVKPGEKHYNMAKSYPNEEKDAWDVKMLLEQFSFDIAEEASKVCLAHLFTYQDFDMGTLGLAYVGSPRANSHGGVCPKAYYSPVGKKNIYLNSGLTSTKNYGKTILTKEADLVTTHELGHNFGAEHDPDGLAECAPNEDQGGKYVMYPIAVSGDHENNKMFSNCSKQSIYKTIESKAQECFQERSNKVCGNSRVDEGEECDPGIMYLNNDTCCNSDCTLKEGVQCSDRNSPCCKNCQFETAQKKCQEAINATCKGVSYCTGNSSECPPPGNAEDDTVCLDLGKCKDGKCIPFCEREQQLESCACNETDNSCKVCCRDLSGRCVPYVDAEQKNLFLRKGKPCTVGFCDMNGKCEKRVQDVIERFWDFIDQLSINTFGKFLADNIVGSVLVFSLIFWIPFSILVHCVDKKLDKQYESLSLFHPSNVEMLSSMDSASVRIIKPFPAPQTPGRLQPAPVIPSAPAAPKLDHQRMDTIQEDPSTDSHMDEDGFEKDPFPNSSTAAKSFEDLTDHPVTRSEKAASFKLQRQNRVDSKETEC

TACE expressed on THP-1 cells, sequence (P78536 215-824): as above

## CNC(=O)[C@H](Cc1c[nH]c2ccccc12)NC(=O)[C@@H](CC(=O)NO)CC(C)C [GM6001]
[1]
  IC50: 5.5 µM

## CC[C@H](C)[C@@H]1NC(=O)[C@@H]2CSSC[C@H](NC(=O)[C@H](CCCNC(=N)N)NC(=O)[C@@H]3CSSC[C@H](NC1=O)C(=O)N[C@@H]([C@@H](C)O)C(=O)N[C@@H](CCCNC(=N)N)C(=O)NCC(=O)N[C@@H](Cc1ccccc1)C(=O)N3)C(=O)N[C@@H](CC(C)C)C(=O)N[C@H]1CSSC[C@H](NC(=O)[C@H](C(C)C)NC(=O)CNC(=O)[C@H](CCCNC(=N)N)NC(=O)[C@H](CCCNC(=N)N)NC1=O)C(=O)N[C@@H](CCCNC(=N)N)C(=O)N2 [RTD-1] (cyclo(GFCRCLCRRGVCRCICTR); disulfide 3-16, 5-14, 7-12 (inferred); ring closure inferred)
[2]
  peptide unaltered: more than 95%
In vitro
  remaining at 72 h, 50 μg/ml: > 95%
chimpanzees
  antibody to RTD-1 (immunogenicity): Neither animal produced an antibody
chimpanzees; following all injections
  clinical chemistry and hematologic laboratory values: within normal limits

## HNP-4: human α-defensin from neutrophils (VCSCRLVFCRRTELRVGNCLIGGVSFTYCCTRV)
[3]
  inhibition of rTACE: neither human α-defensin (HNP-2 (SEQ_ID NO. 31), HNP-4 (SEQ_ID NO. 33)) inhibited rTACE

## HNP-2: human α-defensin from neutrophils (CYCRIPACIAGERRYGTCIYQGRLWAFCC)
[3]
  inhibition of rTACE: neither human α-defensin (HNP-2 (SEQ_ID NO. 31), HNP-4 (SEQ_ID NO. 33)) inhibited rTACE
